# Values quoted from earlier work in patent publication US20090297625A1, “AGENT FOR TREATING EYE DISEASES” (OTKRYTOE AKTSIONERNOE OBSCHESTVO ZAVOD, priority 2006, published 2009).
# Details: administration of lutein as an additive
smiles,measurement,value
CC1=C[C@H](O)CC(C)(C)[C@H]1/C=C/C(C)=C/C=C/C(C)=C/C=C/C=C(C)/C=C/C=C(C)/C=C/C1=C(C)C[C@@H](O)CC1(C)C [lutein],absorption and storage in the macula lutea,well absorbed and stored in the macula lutea
